We go through four compounds from patent US9023789B2, “Amylin analogs and pharmaceutical compositions thereof” (Novo Nordisk A/S, priority 2012, dated 2015).

Series [1] deals with T1, rat amylin receptor (rat calcitonin receptor + rat RAMP 3) (Rattus norvegicus, UniProt P32214+Q9JJ73).
T1 construct: expressed in transfected cells; host or cells: BHK tk'ts 13 (transient, FuGENE 6), membranes
T1 sequence (P32214 25-479 isoform P32214-2 limits assumed): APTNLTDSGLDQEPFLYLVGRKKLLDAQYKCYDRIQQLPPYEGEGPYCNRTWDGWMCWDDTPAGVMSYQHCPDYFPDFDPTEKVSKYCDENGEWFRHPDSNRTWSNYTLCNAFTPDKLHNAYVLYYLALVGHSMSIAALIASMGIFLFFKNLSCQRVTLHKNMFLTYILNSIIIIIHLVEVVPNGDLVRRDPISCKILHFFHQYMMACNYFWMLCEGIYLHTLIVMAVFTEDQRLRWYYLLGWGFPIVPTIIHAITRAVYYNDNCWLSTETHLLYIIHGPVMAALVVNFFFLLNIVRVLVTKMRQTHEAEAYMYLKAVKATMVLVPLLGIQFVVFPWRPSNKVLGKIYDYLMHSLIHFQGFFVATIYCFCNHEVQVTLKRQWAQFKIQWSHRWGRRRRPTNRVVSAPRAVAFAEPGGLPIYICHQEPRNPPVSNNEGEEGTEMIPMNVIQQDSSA
T1 sequence (Q9JJ73 23-147 partner): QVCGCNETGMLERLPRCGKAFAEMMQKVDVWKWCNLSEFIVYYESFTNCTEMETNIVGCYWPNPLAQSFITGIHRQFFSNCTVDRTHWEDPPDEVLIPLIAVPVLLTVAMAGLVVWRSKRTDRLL
Put plainly: ASSAY (VI) binding to the rat amylin receptor. The settings on record: for IC50: binding to rat amylin receptor, read-out: rAmylin-R bind IC50. The method in brief: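 Membranes for this rat amylin receptor binding assay came from BHK tk′ts 13 cells. The cells were transiently transfected with rat calcitonin receptor using the FuGENE® 6 reagent from Roche, as the manufacturer recommends. The cells were collected approximately 48 hours after transfection, and membranes were then prepared.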

The nature of series [2]: ASSAY (IV) determination of solubility. The class given is physicochemical. In outline:
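Solubility measured by UPLC of supernatant after centrifugation, following 18 h at room temperature. Peptide ([…] in water) was diluted 1:1 into 100 mM glycylglycine (pH 3.0, 4.0, 5.0) or bistrispropane (pH 6.0-8.0).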

A short description of series [3]: ASSAY (III) ThT fibrillation assay for physical stability. In kind it is physicochemical. The method in brief:
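Physical stability scored by ThT fluorescence (444 nm excitation, 485 nm emission) tracked every 20 min during 37 °C incubation with 960 rpm shaking, ThT at 1 μM final. Values are replicate means with SD at chosen times; HPLC against pramlintide standard gives initial and post-assay soluble concentrations.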

[4] abbreviates: Table 7, rat binding selectivity, rCTR IC50 / rAmylin-R IC50.
Where [5] appears, read: Table 7a (preferred compounds), rat binding selectivity, rCTR IC50 / rAmylin-R IC50.
Setting [6] is: ratio of rCTR bind IC50 to rAmylin-R bind IC50.
The mark [7] stands for this setting: bistrispropane buffer, pH 6.5, read-out: Solubility pH 6.5 Concentration.
Setting [8] is: bistrispropane buffer, pH 7.5, read-out: Solubility pH 7.5 Concentration.
Setting [9] is: bistrispropane buffer, pH 6.0, read-out: Solubility pH 6.0 Concentration.
The mark [10] stands for this setting: bistrispropane buffer, pH 7.0, read-out: Solubility pH 7.0 Concentration.
Where [11] appears, read: bistrispropane buffer, pH 8.0, read-out: Solubility pH 8.0 Concentration.
[12] abbreviates: glycylglycine buffer, pH 3.0, read-out: Solubility pH 3.0 Concentration.
Setting [13] is: glycylglycine buffer, pH 4.0, read-out: Solubility pH 4.0 Concentration.
The mark [14] stands for this setting: glycylglycine buffer, pH 5.0, read-out: Solubility pH 5.0 Concentration.

SMILES strings stand for the structures. In brackets after ≈: the same amount, converted by molar mass. Read-outs that look alike come from different tables or passages of the source. Numbered stars: 1 amine (or outer) side, 2 acyl side, 3 side chain; on linkers, the order of the positions; unused ones are H or OH. Bridge positions count the residues as written; N and C are the ends. Side chains are listed from the residue outwards. Peptide text beside a SMILES is read from it. * marks the point of attachment. C20 diacid = O=C(O)CCCCCCCCCCCCCCCCCCC(=O)*; γGlu = O=C(O)[C@H](CCC(=O)[*:2])N[*:1]; AEEA = NCCOCCOCC(=O)O

The IC50 is the midpoint of a concentration-inhibition curve. For `CC[C@H](C)[C@H](NC(=O)[C@H](C)NC(=O)CNC(=O)[C@H](Cc1ccccc1)NC(=O)[C@H](CC(N)=O)NC(=O)[C@@H]1CCCN1C(=O)[C@H](CO)NC(=O)[C@H](CO)NC(=O)[C@H](Cc1c[nH]cn1)NC(=O)[C@H](CCCNC(=N)N)NC(=O)[C@H](CC(C)C)NC(=O)[C@H](Cc1ccccc1)NC(=O)[C@H](CC(N)=O)NC(=O)[C@H](C)NC(=O)[C@H](CC(C)C)NC(=O)[C@H](CCCNC(=N)N)NC(=O)[C@H](CCC(N)=O)NC(=O)[C@@H](NC(=O)[C@H](C)NC(=O)[C@@H]1CSSC[C@H](NC(=O)[C@@H](N)CCCCNC(=O)COCCOCCNC(=O)CC[C@H](NC(=O)CCCCCCCCCCCCCCCCCCC(=O)O)C(=O)O)C(=O)N[C@@H](CC(N)=O)C(=O)N[C@@H]([C@@H](C)O)C(=O)N[C@@H](C)C(=O)N[C@@H]([C@@H](C)O)C(=O)N1)[C@@H](C)O)C(=O)N1CCC[C@H]1C(=O)N[C@@H](CO)C(=O)N[C@@H](CO)C(=O)N[C@H](C(=O)N1CCC[C@H]1C(=O)N[C@H](C(=O)NCC(=O)N[C@@H](CO)C(=O)N[C@@H](Cc1c[nH]cn1)C(=O)N[C@H](C(=O)N[C@@H](Cc1ccc(O)cc1)C(N)=O)[C@@H](C)O)C(C)C)[C@@H](C)O` [Example 57] (H-K([AEEA-γGlu-C20 diacid])CNTATCATQRLANFLRHSSPNFGAIPSSTPVGSHTY-NH2; disulfide 2-7; N-terminus assumed), in series [1] (Table 7), the IC50 is 0.181 nM. The “Ratio rCT/rAmylin binding” value in series [1] (setting [4]), in series [1] (setting [5]) and in series [1] (setting [6]) was 134.8 each time. Further, the solubility at 18 h in series [2] (setting [7]) is no less than 200 µM; in series [2] (setting [8]), 142 µM (≈ 644 µg/mL); in series [2] (setting [9]), no less than 200 µM; in series [2] (setting [10]) it was no less than 200 µM; in series [2] (setting [11]), 101 µM (≈ 458 µg/mL); in series [2] (setting [12]), no less than 200 µM. Also, the solubility at 18 h in series [2] (setting [13]) and in series [2] (setting [14]) was no less than 200 µM throughout. For the same compound, in series [3], the “ThT pH 4.0 lag time (h)” value is recorded as 45 h.
With `CC[C@H](C)[C@H](NC(=O)[C@H](C)NC(=O)CNC(=O)[C@H](Cc1ccccc1)NC(=O)[C@H](CC(N)=O)NC(=O)[C@@H]1CCCN1C(=O)[C@H](CO)NC(=O)[C@H](CO)NC(=O)[C@H](Cc1c[nH]cn1)NC(=O)[C@H](CCCNC(=N)N)NC(=O)[C@H](CC(C)C)NC(=O)[C@H](Cc1ccccc1)NC(=O)[C@H](CC(N)=O)NC(=O)[C@H](C)NC(=O)[C@H](CC(C)C)NC(=O)[C@H](CCCNC(=N)N)NC(=O)[C@H](CCC(N)=O)NC(=O)[C@@H](NC(=O)[C@H](C)NC(=O)[C@@H]1CSSC[C@H](NC(=O)[C@@H](N)CCCCNC(=O)CC[C@H](NC(=O)CCCCCCCCCCCCCCCCCCC(=O)O)C(=O)O)C(=O)N[C@@H](CC(N)=O)C(=O)N[C@@H]([C@@H](C)O)C(=O)N[C@@H](C)C(=O)N[C@@H]([C@@H](C)O)C(=O)N1)[C@@H](C)O)C(=O)N1CCC[C@H]1C(=O)N[C@@H](CO)C(=O)N[C@@H](CO)C(=O)N[C@H](C(=O)N[C@@H](CC(N)=O)C(=O)N[C@H](C(=O)NCC(=O)N[C@@H](CO)C(=O)N[C@@H](Cc1c[nH]cn1)C(=O)N[C@H](C(=O)N[C@@H](Cc1ccc(O)cc1)C(N)=O)[C@@H](C)O)C(C)C)[C@@H](C)O` [Example 60], the IC50 in series [1] (Table 7) came out at 0.215 nM. The “Ratio rCT/rAmylin binding” value in series [1] (setting [4]), in series [1] (setting [5]) and in series [1] (setting [6]) was 122.4 in each case. Besides, the solubility at 18 h in series [2] (setting [7]) is no less than 200 µM; in series [2] (setting [8]) it was 186 µM (≈ 819 µg/mL); in series [2] (setting [9]) it was no less than 200 µM; in series [2] (setting [10]), no less than 200 µM; in series [2] (setting [11]), 98 µM (≈ 432 µg/mL); in series [2] (setting [12]), no less than 200 µM. The solubility at 18 h in series [2] (setting [13]) and in series [2] (setting [14]) was no less than 200 µM throughout. In addition, the “ThT pH 4.0 lag time (h)” value in series [3] came out at 45 h.
Regarding `CC[C@H](C)[C@H](NC(=O)[C@H](C)NC(=O)CNC(=O)[C@H](Cc1ccccc1)NC(=O)[C@H](CC(N)=O)NC(=O)[C@@H]1CCCN1C(=O)[C@H](CO)NC(=O)[C@H](CO)NC(=O)[C@H](Cc1c[nH]cn1)NC(=O)[C@H](CCCNC(=N)N)NC(=O)[C@H](CC(C)C)NC(=O)[C@H](Cc1ccccc1)NC(=O)[C@H](Cc1c[nH]cn1)NC(=O)[C@H](C)NC(=O)[C@H](CC(C)C)NC(=O)[C@H](CCCNC(=N)N)NC(=O)[C@H](CCC(N)=O)NC(=O)[C@@H](NC(=O)[C@H](C)NC(=O)[C@@H]1CSSC[C@H](NC(=O)[C@@H](N)CCCCNC(=O)COCCOCCNC(=O)CC[C@H](NC(=O)CCCCCCCCCCCCCCCCCCC(=O)O)C(=O)O)C(=O)N[C@@H](CC(N)=O)C(=O)N[C@@H]([C@@H](C)O)C(=O)N[C@@H](C)C(=O)N[C@@H]([C@@H](C)O)C(=O)N1)[C@@H](C)O)C(=O)N1CCC[C@H]1C(=O)N[C@@H](CO)C(=O)N[C@@H](CO)C(=O)N[C@H](C(=O)N1CCC[C@H]1C(=O)N[C@H](C(=O)NCC(=O)N[C@@H](CO)C(=O)N[C@@H](CC(N)=O)C(=O)N[C@H](C(=O)N[C@@H](Cc1ccc(O)cc1)C(N)=O)[C@@H](C)O)C(C)C)[C@@H](C)O` [Example 61] (H-K([AEEA-γGlu-C20 diacid])CNTATCATQRLAHFLRHSSPNFGAIPSSTPVGSNTY-NH2; disulfide 2-7 (inferred)), the IC50 in series [1] (Table 7) amounted to 0.842 nM. In addition, the “Ratio rCT/rAmylin binding” value in series [1] (setting [4]), in series [1] (setting [5]) and in series [1] (setting [6]) was 39.7 in each case. Also, the solubility at 18 h in series [2] (setting [7]) was no less than 200 µM; in series [2] (setting [8]) it was no less than 200 µM; in series [2] (setting [9]), no less than 200 µM; in series [2] (setting [10]) it was no less than 200 µM; in series [2] (setting [11]), 153 µM (≈ 693 µg/mL); in series [2] (setting [12]), no less than 200 µM. For the same compound, the solubility at 18 h in series [2] (setting [13]) and in series [2] (setting [14]) was no less than 200 µM each time. Further, in series [3], the “ThT pH 4.0 lag time (h)” value worked out at 45 h.
Take `CC[C@H](C)[C@H](NC(=O)[C@H](C)NC(=O)CNC(=O)[C@H](Cc1ccccc1)NC(=O)[C@H](CC(N)=O)NC(=O)[C@@H]1CCCN1C(=O)[C@H](CO)NC(=O)[C@H](CO)NC(=O)[C@H](Cc1c[nH]cn1)NC(=O)[C@H](CCCNC(=N)N)NC(=O)[C@H](CC(C)C)NC(=O)[C@H](Cc1ccccc1)NC(=O)[C@H](Cc1c[nH]cn1)NC(=O)[C@H](C)NC(=O)[C@H](CC(C)C)NC(=O)[C@H](CCCNC(=N)N)NC(=O)[C@H](CCC(N)=O)NC(=O)[C@@H](NC(=O)[C@H](C)NC(=O)[C@@H]1CSSC[C@H](NC(=O)[C@@H](N)CCCCNC(=O)CC[C@H](NC(=O)CCCCCCCCCCCCCCCCCCC(=O)O)C(=O)O)C(=O)N[C@@H](CC(N)=O)C(=O)N[C@@H]([C@@H](C)O)C(=O)N[C@@H](C)C(=O)N[C@@H]([C@@H](C)O)C(=O)N1)[C@@H](C)O)C(=O)N1CCC[C@H]1C(=O)N[C@@H](CO)C(=O)N[C@@H](CO)C(=O)N[C@H](C(=O)N1CCC[C@H]1C(=O)N[C@H](C(=O)NCC(=O)N[C@@H](CO)C(=O)N[C@@H](CC(N)=O)C(=O)N[C@H](C(=O)N[C@@H](Cc1ccc(O)cc1)C(N)=O)[C@@H](C)O)C(C)C)[C@@H](C)O` [Example 62] (H-K([γGlu-C20 diacid])CNTATCATQRLAHFLRHSSPNFGAIPSSTPVGSNTY-NH2; disulfide 2-7; N-terminus assumed): the IC50 in series [1] (Table 7) stood at 0.42 nM. Moreover, the “Ratio rCT/rAmylin binding” value in series [1] (setting [4]), in series [1] (setting [5]) and in series [1] (setting [6]) was 42.8 each time. Also, the solubility at 18 h is no less than 200 µM in series [2] (setting [7]); no less than 200 µM in series [2] (setting [8]); no less than 200 µM in series [2] (setting [9]); no less than 200 µM in series [2] (setting [10]); 189 µM (≈ 829 µg/mL) in series [2] (setting [11]); no less than 200 µM in series [2] (setting [12]). Further, the solubility at 18 h in series [2] (setting [13]) and in series [2] (setting [14]) was no less than 200 µM throughout. In series [3], the “ThT pH 4.0 lag time (h)” value was found to be 45 h.
